Several values for one entry are separate records, joined by “and”; a condition that tells them apart may be missing. Identical values can stand only once.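 Values below derive from 48-hour exposures of cells grown in 96-well plates, with endpoints linearly interpolated between the two concentrations bracketing the appropriate inhibition level. GI50 marks 50% less growth. TGI marks complete inhibition of growth.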
Columns and labels:
Experiment in all cases: inhibition of tumour cell growth, NCI panel, 48 h
HOP-92 NSCLC = test system: HOP-92 NSCLC
COLO 205 colon = test system: COLO 205 colon
SNB-75 CNS = test system: SNB-75 CNS
NCI-H522 lung = test system: NCI-H522 lung
T-47D breast = test system: T-47D breast
CCRF-CEM leukemia = test system: CCRF-CEM leukemia
DU-145 prostate = test system: DU-145 prostate
786-0 renal = test system: 786-0 renal
SNB-19 CNS = test system: SNB-19 CNS
NCI-H23 lung = test system: NCI-H23 lung

| Compound | TGI (HOP-92 NSCLC) | TGI (COLO 205 colon) [µM] | TGI (SNB-75 CNS) | TGI (NCI-H522 lung) | TGI (T-47D breast) | TGI (CCRF-CEM leukemia) | TGI (DU-145 prostate) [µM] | TGI (786-0 renal) [µM] | TGI (SNB-19 CNS) [µM] | TGI (NCI-H23 lung) | GI50 (HOP-92 NSCLC) [µM] | GI50 (COLO 205 colon) [µM] | GI50 (NCI-H23 lung) [µM] |
| --- | --- | --- | --- | --- | --- | --- | --- | --- | --- | --- | --- | --- | --- |
| Cc1cc(C(C)(C)C)c(OCCCN2CCOCC2)c(C(C)(C)C)c1 | 35 µM | 30.6 | 32.6 µM | 33.2 µM | 34.1 µM | 33.2 µM | 34.1 | 31.9 | 32.1 | 32 µM | – | – | – |
| C[N+](C)(C)c1nc(N)nc2c1ncn2C1OC(CO)C(O)C1O (stereo not drawn) | > 100 µM | > 100 | > 100 µM | > 100 µM | > 100 µM | > 100 µM | > 100 | > 100 | > 100 | > 100 µM | – | – | – |
| Nc1ncnc2c(C3OC(CO)C(O)C3O)c[nH]c12 (stereo not drawn) | 0.00836 µM and 0.0664 µM | – | 0.0984 µM and 0.459 µM | 0.0601 µM and 0.0389 µM | 0.0758 µM and 0.0275 µM | 0.0988 µM and < 0.0135 µM | 0.113 | 16.4 | 8.69 | 0.0792 µM and 0.0756 µM | 0.00215 | 0.0193 | < 0.0104 |
| Cc1ccc2c(=O)c3c(O)c4c(cc3n(C)c2c1)OC(C)(C)C=C4 | > 10 µM | > 10 | > 10 µM | > 10 µM | > 10 µM | > 10 µM | > 10 | > 10 | > 10 | > 10 µM | – | – | – |
| O=C(NC(Cc1c[nH]c2ccccc12)C(=O)O)/C(=C/c1ccccc1)NC(=O)c1ccccc1 (stereo not drawn) | 94.8 µM | > 100 | > 100 µM | > 88.7 µM | > 100 µM | > 100 µM | > 100 | > 100 | > 100 | > 100 µM | – | – | – |
| COc1ccc(/C=C(\C#N)c2nc(-c3cc4ccccc4oc3=O)cs2)cc1 | 36.2 µM | > 100 | 59.5 µM | 57.5 µM | > 100 µM | > 100 µM | > 100 | 41.4 | 34.9 | – | – | – | – |
| NC(=S)NS(=O)(=O)c1ccc(Cl)cc1Cl | > 100 µM | > 100 | > 100 µM | > 100 µM | > 100 µM | > 100 µM | > 100 | > 100 | > 100 | > 100 µM | – | – | – |
| CC(=O)Oc1ccc(-c2c(OC(C)=O)c(OC(C)=O)c(-c3ccc(OC(C)=O)c(OC(C)=O)c3)c(OC(C)=O)c2OC(C)=O)cc1 | – | 32 | 31.9 µM | 18.4 µM | 29.2 µM | 37.4 µM | 29.8 | 30.6 | 32.6 | 38 µM | – | – | – |
| Clc1cccc(Cl)c1C1ON=C(c2ccccc2)N1C12CC3CC(CC(C3)C1)C2 (stereo not drawn) | 75.3 µM | 30.5 | 18.3 µM | > 100 µM | > 100 µM | 56.5 µM | > 100 | > 100 | > 100 | > 100 µM | – | – | – |
| O=[N+]([O-])c1ccc(-c2nc3ccccc3o2)cc1 | > 100 µM | > 100 | > 100 µM | > 100 µM | > 100 µM | > 100 µM | > 100 | > 100 | > 100 | > 100 µM | – | – | – |
| NC(Cc1ccccc1)C(=O)O (stereo not drawn) | > 100 µM | > 100 | > 100 µM | > 100 µM | > 100 µM | > 100 µM | > 100 | > 100 | > 100 | > 100 µM | – | – | – |
| CN(NC(=O)/C(=C/C=C/c1ccccc1)NC(=O)c1ccccc1)C1=C(Cl)C(=O)[N+](c2ccccc2)=CC1 | 80.1 µM | 33.7 | 69.6 µM | 61.5 µM | 38.8 µM | – | > 100 | 39.2 | 80.2 | > 100 µM | – | – | – |
| C1CN(C23OC4(N5CCOCC5)C5C6CC(C7C6C4C72)C53)CCO1 (stereo not drawn) | > 100 µM | > 100 | > 100 µM | > 100 µM | > 100 µM | > 100 µM | > 100 | > 100 | > 100 | > 100 µM | – | – | – |
| CCCS(=O)OC1C(C2COC(C)(C)O2)OC2OC(C)(C)OC21 (stereo not drawn) | 22.8 µM | 27.2 | > 48.8 µM | 25.9 µM | > 69.6 µM | 21.5 µM | 47.3 | 27.8 | 30.8 | 23.4 µM | – | – | – |
| COc1ccc(C2=C(N)c3ccccc3C2=O)cc1 | > 100 µM | > 100 | 78.7 µM | > 100 µM | > 100 µM | > 100 µM | > 100 | > 100 | 64.3 | > 100 µM | – | – | – |
| NCCCN1CCN(CCCNc2ccc3ncn4c5ccccc5c(=O)c2c34)CC1 | > 25 µM | 2.66 | 8.71 µM | 1.52 µM | 12.1 µM | > 25 µM | 8.2 | 24 | 4.46 | 6.98 µM | – | – | – |
| CCOC(=O)c1c(C)n(CCN2CCN(C)CC2)c2ccc(OC)cc12 | 80.5 µM | 31.6 | > 100 µM | > 100 µM | > 100 µM | 71.4 µM | > 100 | > 100 | > 100 | > 100 µM | – | – | – |
| O=c1[nH]nc(Cc2ccc([N+](=O)[O-])cc2)[nH]1 | – | > 100 | > 100 µM | > 100 µM | > 100 µM | > 100 µM | > 100 | > 100 | > 100 | > 100 µM | – | – | – |
| CC(CN(C)C)C(O)(c1ccccc1)c1ccccc1 (stereo not drawn) | > 100 µM | > 100 | > 100 µM | > 100 µM | > 100 µM | > 100 µM | > 100 | > 100 | > 100 | > 100 µM | – | – | – |
| CC1=C(C(=O)OC(C)C)C(c2cccc([N+](=O)[O-])c2)C(C(=O)OC(CO[N+](=O)[O-])CO[N+](=O)[O-])=C(C)N1 (stereo not drawn) | 7.38 µM | 8.39 | 43.3 µM | 6.77 µM | > 100 µM | > 20.1 µM | > 100 | > 100 | 24.6 | > 100 µM | – | – | – |
| O=c1c2cc(Cl)ccc2n2nnc3ccc(NCCNCCO)c1c32 | 6.1 µM | 2.68 | 0.286 µM | 3.03 µM | 7.52 µM | 4.44 µM | 8.91 | 2.02 | 5.07 | 2.86 µM | – | – | – |

Reference: PubChem BioAssay (NCI)
